Measured values: US6818407B2, “Anti-endotoxic antimicrobial cationic peptides and methods of use therfor” (priority 1998, dated 2004)
Ends that are not written are not given here.

How the values were obtained:
[1] = Lethal endotoxemia in galactosamine-sensitized mice; assay type: in vivo, CD-1 mice; details: peptide 200 μg intraperitoneal within 10 min of 10 μg LPS; 24 hours post injection; 5 mice per group; no peptide 100
Method: To confirm this in vivo, endotoxic shock was induced by intraperitoneal injection of 10 μg of E.coli 0111:B4 LPS in phosphate-buffered saline (PBS; pH 7.2) into galactosamine-sensitized 8- to 10- week old female CD-1 mice (5 per group). In experiments involving peptides, 200 μg in 100 μl of sterile water was injected at separate intraperitoneal sites within 10 min of LPS injection. Survival was monitored at 24 hours post injection.

[2] = tested on: Aeromonas salmonicida (As); assay type: cell-based; details: Mueller Hinton Broth
Method: (§1) The biological activity of the peptides can be determined by standard methods known to those of skill in the art, such as Aminimal inhibitory concentration (MIC)≅ assay described in the present examples, whereby the lowest concentration at which no change in OD is observed for a given period of time is recorded as MIC. Alternatively, Afractional inhibitory concentration (FIC)≅ is also useful for determination of synergy between the peptides of the invention, or the peptides in combination with known antibiotics. FICs are performed by checkerboard titrations of peptides in one dimension of a microtiter plate, and of antibiotics in the other dimension, for example. The FIC is calculated by looking at the impact of one antibiotic on the MIC of the other and vice versa. […] Preferably, an FIC of less than 0.5 is obtained for synergism. As used herein, FIC can be determined as follows: [formula]
(§2) These peptides varied in activity (Table 11), however, the C-terminally capped pleurocidin especially and its N-terminally capped lysine derivative had much better activities against a variety of bacteria including Vibrio anguillarum (Va), Aeromonas salmonicida (As), Staphylococcus epidermidis (C621), Salmonella typhimurium wild type (C587) and phoP phoQ mutant (C610), and Pseudomonas aeruginosa wild type (K799) and outer membrane barrier altered (Z61). The antimicrobial peptide CEME, a fusion peptide made from portions of an insect defensin ceropin A and the bee venom peptide melittin (Piers and Hancock, Mol. Microbiol., 12:951-8, 1994), as well as the known antibiotics polymyxin B and gentamicin were used as controls. Replacing the pleurocidin N-terminus with the dermaseptin N-terminus had no effect. Replacing pleurocidin N-terminus with the ceratoxin N-terminus reduced activity. […] Amidating the C-terminus improved antimicrobial activity. Replacing the pleurocidin C-terminus with the misgurin C-terminus had no effect.
(§3) Bacteria included Vibrio anguillarum (Va), Aeromonas salmonicida (As), Staphylococcus epidermidis (C621), Salmonella typhimurium wild type (C587) and phoP phoQ mutant (C6 10), and Pseudomonas aeruginosa wild type (K799) and outer membrane barrier altered (Z61).

[3] = tested on: Pseudomonas aeruginosa outer membrane barrier altered (Z61); assay type: cell-based; details: Mueller Hinton Broth
Method: as §1, §2, §3

[4] = tested on: Pseudomonas aeruginosa wild type (K799); assay type: cell-based; details: Mueller Hinton Broth
Method: as §1, §2, §3

[5] = tested on: Salmonella typhimurium phoP phoQ mutant (C610); assay type: cell-based; details: Mueller Hinton Broth
Method: as §1, §2, §3

[6] = tested on: Salmonella typhimurium wild type (C587); assay type: cell-based; details: Mueller Hinton Broth
Method: as §1, §2, §3

[7] = tested on: Staphylococcus epidermidis (C621); assay type: cell-based; details: Mueller Hinton Broth
Method: as §1, §2, §3

[8] = tested on: Vibrio anguillarum (Va); assay type: cell-based; details: Mueller Hinton Broth
Method: as §1, §2, §3

[9] = tested on: E. coli; assay: MIC, broth microdilution assay in polypropylene microtiter trays; assay type: cell-based; details: average of three separate experiments
Method: as §1
(§4) A method which employed polypropylene microtiter trays in a broth microdilution assay was developed.

[10] = tested on: P. aeruginosa; assay: as above; assay type: cell-based; details: average of three separate experiments
Method: as §1, §4

[11] = tested on: S. aureus K147; assay: as above; assay type: cell-based; details: average of three separate experiments
Method: as §1, §4

[12] = tested on: S. aureus; assay: as above; assay type: cell-based; details: average of three separate experiments
Method: as §1, §4

[13] = tested on: S. epidermis; assay: as above; assay type: cell-based; details: average of three separate experiments
Method: as §1, §4

[14] = tested on: Pseudomonas aeruginosa strain M2; assay: Protection of neutropenic CD-1 mice challenged with Pseudomonas aeruginosa; assay type: in vivo; design: Survival post bacterial challenge, surviving mice: reference not given here; details: for Survival (%) post bacterial challenge: PBS 8
Method: CD-1 mice were induced to be neutropenic via 3 intraperitoneal injections of cyclophosphamide ([…]) every another day. Immediately after the third administration of cyclophosphamide, the mice were challenged by intraperitoneal injection of Pseudomonas aeruginosa strain M2 (200-300 organisms/mouse). Cationic peptides (200 µg per mouse=8 mg/kg) in 100 µl buffered citrate were injected intraperitoneally at 30 min (single dose) or 30 min and 16 hrs (double dose) post bacterial challenge, respectively. The data were the average values of 2 individual experiments. PBS was used as a control. […] In general single dose protection studies gave better protection than double dose experiments.

Compound	MIC As [2]	MIC Z61 [3]	MIC K799 [4]	MIC C610 [5]	MIC C587 [6]	MIC C621 [7]	MIC Va [8]	other results
CC[C@H](C)[C@H](NC(=O)CNC(=O)[C@@H](NC(=O)[C@H](CCCCN)NC(=O)[C@H](CCCCN)NC(=O)[C@H](Cc1ccccc1)NC(=O)[C@H](CC(C)C)NC(=O)[C@H](CCCCN)NC(=O)[C@H](Cc1c[nH]c2ccccc12)NC(=O)[C@@H](N)CCCCN)[C@@H](C)CC)C(=O)NCC(=O)N[C@@H](C)C(=O)N[C@H](C(=O)N[C@@H](CC(C)C)C(=O)N[C@@H](CCCCN)C(=O)N[C@H](C(=O)N[C@@H](CC(C)C)C(=O)N[C@H](C(=O)N[C@H](C(=O)NCC(=O)N[C@@H](CC(C)C)C(=O)N1CCC[C@H]1C(=O)N[C@@H](C)C(=O)N[C@@H](CC(C)C)C(=O)N[C@@H](CCCCN)C(=O)N[C@@H](CC(C)C)C(=O)N[C@H](C(=O)N[C@@H](CCCCN)C(=O)O)[C@@H](C)O)[C@@H](C)O)[C@@H](C)O)C(C)C)C(C)C [CEMA, reference compound]	–	–	–	–	–	–	–	Mortality (%) [1]: 0%
gentamicin [reference compound]	<0.5 µg/mL	<0.5 µg/mL	<0.5 µg/mL	<0.5 µg/mL	<0.5 µg/mL	16 µg/mL	1 µg/mL	–
KGWGSFFKKAAHVGKHVGKAALTHYL-NH2 [Peptide P-1-CN]	1 µg/mL	2 µg/mL	8 µg/mL	<0.5 µg/mL	2 µg/mL	2 µg/mL	2 µg/mL	–
CC[C@H](C)[C@H](NC(=O)[C@H](CC(C)C)NC(=O)[C@H](C)NC(=O)[C@@H]1CCCN1C(=O)[C@H](CC(C)C)NC(=O)CNC(=O)[C@@H](NC(=O)[C@@H](NC(=O)[C@H](CC(C)C)NC(=O)[C@@H](NC(=O)[C@H](CCCCN)NC(=O)[C@H](CCCCN)NC(=O)[C@@H](NC(=O)[C@H](C)NC(=O)[C@@H](NC(=O)[C@@H](NC(=O)[C@H](CC(C)C)NC(=O)[C@H](CCCCN)NC(=O)[C@H](CCCCN)NC(=O)[C@@H](NC(=O)[C@H](Cc1ccccc1)NC(=O)[C@H](CO)NC(=O)[C@H](CCCCN)NC(=O)[C@H](Cc1c[nH]c2ccccc12)NC(=O)[C@@H](N)CCCCN)[C@@H](C)CC)[C@@H](C)O)[C@@H](C)O)C(C)C)C(C)C)[C@@H](C)O)[C@@H](C)O)C(=O)N[C@@H](CO)C(=O)O [CP-29, reference compound]	–	–	–	–	–	–	–	MIC E. coli [9]: 2 µg/mL; MIC P. aeruginosa [10]: 6 µg/mL; MIC S. aureus K147 [11]: 11 µg/mL; MIC S. aureus [12]: 19 µg/mL; MIC S. epidermis [13]: 5 µg/mL; Survival post bacterial challenge, surviving mice ([14]; single dose (200 μg per mouse i.p. at 30 min), 16 hr): 8; Survival post bacterial challenge, surviving mice ([14]; single dose, 24 hr): 8; Survival post bacterial challenge, surviving mice ([14]; single dose, 41 hr): 7; Survival post bacterial challenge, surviving mice ([14]; single dose, 48 hr): 6; Survival post bacterial challenge, surviving mice ([14]; single dose, 64 hr): 4; Survival (%) post bacterial challenge ([14]; single dose, 64 hr): 50%; Survival post bacterial challenge, surviving mice ([14]; single dose, 72 hr): 4; Survival (%) post bacterial challenge ([14]; single dose, 72 hr): 50%; Survival post bacterial challenge, surviving mice ([14]; single dose, 96 hr): 3; Survival (%) post bacterial challenge ([14]; single dose, 96 hr): 37%
ALWKTMLKKAAHVGKHVGKAALTHYL-NH2 [P-DER]	1 µg/mL	8 µg/mL	16 µg/mL	0.5 µg/mL	4 µg/mL	4 µg/mL	4 µg/mL	–
SIGSAFKKAAHVGKHVGKAALTHYL-NH2 [P-CER]	8 µg/mL	>64 µg/mL	>64 µg/mL	2 µg/mL	>64 µg/mL	>64 µg/mL	64 µg/mL	–
